Here are results for 22 molecules from patent US20090227518A1, “COMPOSITIONS AND METHODS FOR TREATING ACTIN-MEDIATED MEDICAL CONDITIONS” (The Regents of the University of Colorado, priority 2005, published 2009).

One assay has as its system F-actin. Briefly: F-actin filament depolymerization. Type of assay: biochemical. The following applies: added to preformed F-actin filaments. On the procedure:
In separate experiments (data not shown), F-actin filaments were produced and AAT was added to determine if AAT had depolymerization properties. As a control, Getsolin™, a protein that has known depolymerization properties, was added to F-actin filaments.

The subject of another assay is HIV-1 strain A018A. It is filed as cell-based, human. To be noted: alone or in combination. The text has this:
The MAGI (Multinuclear Activation of a Galactosidase Indicator)-CCR-5 cell line is a clone derived from the HeLa cell line that expresses high levels of CD4. It has been transfected with a single integrated copy of a galactosidase gene under control of the HIV-1 long terminal repeat. β-Galactosidase is expressed upon production of HIV-1 Tat protein following one round of HIV-1 replication within the cell. The MAGI-CCR-5 cell line is derived from MAGI cells into which the CCR-5 HIV-1 co-receptor gene has been incorporated. These cells constitute an assay for early infection events and can be infected with either lymphocyte-tropic or macrophage-tropic HIV-1 strains.
Cells were cultured in polystyrene T-175 flasks in medium until cells were noted to be in log growth phase. Cells were then resuspended in fresh medium and aliquoted into 24-well polystyrene plates at 4×10^4 cells per well (1.0 ml total volume). After 24 hr incubation adherent cells were 30-40% confluent and medium was removed. Two hundred μl of fresh medium was then added to each well without (negative control) or with AAT and incubated for 1 hour. AAT diluent was added to a separate well at a volume equivalent to that of the highest concentration of AAT tested (control).
One hundred thirty TCID50 of HIV-1 and DEAE dextran in medium were added to each well. T-cell tropic HIV-1 strain A018A was used. After 2 hr incubation, medium was added to each well to adjust the final volume of each well to 500 μl. Cultures were incubated for 48 hr, which allowed infection of the MAGI-CCR-5 cells. Medium was aspirated and the cells fixed for 5.0 min at room temperature by adding 1.0 ml of a 1% formaldehyde/0.2% glutaraldehyde solution in phosphate buffered saline (PBS). Fixing solution was then aspirated and cells washed with PBS. This was followed by addition of galactosidase staining solution. Fifty minutes of incubation was followed by a blinded optical count of pigmented cells under a microscope.
The MAGI-CCR-5 cell assay evaluates early events in the HIV-1 infection process. These events include cell-surface binding and internalization, uncoating, reverse transcription and translation, protein processing and Tat activity. Binding of the tat protein to a reporter construct within the MAGI-CCR-5 cells enables quantification of these early HIV-1 events.

Assay [1] concerns the target F-actin (filamentous actin). Briefly: F-actin co-sedimentation, 150,000 x g, SDS-PAGE densitometry, eight replicates.
The test system of another assay is HIV-1. Briefly: U1 monocytic cell assay (HIV-1 p24 antigen). The following applies: same experimental condition as in Example 7.
The next assay concerns NF-κB. Description: IL-18-induced NF-κB expression. To be noted: induced by IL-18. Type of assay: cell-based. The text has this:
P3 inh is also known as CE-2072 or (benzyloxycarbonyl)-L-valyl-N-[1-(2-(3-methylbenzyl)-1,3,4-oxadiazolyl]carbonyl)-2-(S)-methylpropyl]-L-prolinamide. Methods of preparing P3 inh and its derivatives are disclosed in U.S. Pat. No. 5,807,829, which is incorporated by reference herein. […] A band that corresponds to IL-18-induced NF-κB was much larger than NF-κB in controls not stimulated by IL-18. […] This was an unexpected observation as these compounds are not known to interfere with NF-κB expression.

In assay [2] the test system is peritoneal cellular infiltrate. Briefly: Thioglycolate-elicited peritoneal infiltration. Type of assay: in vivo, mice. The following applies: 1 mg.
Experimental: Peritoneal lavage was performed at 24 and 48 hours (thioglycolate) or on days 1-5 (allogeneic cells). For lavage, mice were anesthetized by isoflurane inhalation and injected immediately with 5.5 ml cold PBS containing 5% FCS and 5 U/ml heparin into the peritoneal cavity. After massaging the abdomen, peritoneal fluid was recovered with an 18.5 G needle and syringe. Recovered volumes ranged from 4.5 to 5.5 ml. Red blood cells were lysed (RBC lysing buffer, BD PharMingen) and cell counts were performed with a hemocytometer. Cells were then centrifuged and the pellet was resuspended in wash buffer containing 2% BSA, 0.1% sodium azide and 0.1% EDTA. Cells were kept at 4° C. throughout the staining procedure. Cells (at least 1×10^6/polypropylene vial) were incubated with FcγRIII/II receptor blocking antibodies (Table 1) for 10 min. […] The number of cells expressing a particular marker was calculated by multiplying percentages obtained from flow-cytometry by the concentration of cells in lavage fluid.
To address the possibility that AAT affects immune cell infiltration, two models of cell emigration were examined: thioglycolate (ThG)-elicited peritoneal infiltration, and cellular infiltration due to intraperitoneal injection of MHC-incompatible fibroblasts. […] Peritoneal lavage was performed 24 and 48 hours later and cells were counted and stained with specific antibodies for FACS analysis.
For the next assay, the target named is porcine elastase (Sus scrofa, UniProt P00772). Description: Elastase neutralization assay. It is filed as biochemical. The following applies: cleavable color-generating substrate.
porcine elastase, sequence (P00772 27-266): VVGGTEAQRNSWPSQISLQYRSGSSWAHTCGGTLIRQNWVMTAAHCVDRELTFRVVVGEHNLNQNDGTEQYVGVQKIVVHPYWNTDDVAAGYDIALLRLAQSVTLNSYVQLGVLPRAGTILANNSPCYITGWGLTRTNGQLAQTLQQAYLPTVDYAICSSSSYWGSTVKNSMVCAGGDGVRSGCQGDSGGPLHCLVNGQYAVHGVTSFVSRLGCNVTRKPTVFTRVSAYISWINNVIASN

Experimental for porcine elastase: The anti-serine protease function of AAT was examined for its role in the inhibitory effects on HIV-1. AAT was modified to reduce its serine protease inhibitory function to undetectable levels. Quantitation of the anti-protease activity of AAT was determined using an elastase neutralization assay. In this assay porcine elastase was incubated with a cleavable substrate. Upon cleavage of the substrate by elastase, a color-generating product was released, which was quantitated using a spectrophotometer. […] The inactivated AAT was then added to U1 cells, which was then stimulated with IL-18 and compared to native AAT.

gelsolin: the “depolymerization of F-actin filaments” value with F-actin was “actively dissociate”.

For the molecule “FVYLI: carboxyterminal peptide analyzed for its effect on HIV-1”, the “antiviral activity in MAGI cultures” value in the assay on HIV-1 strain A018A is “active”.

With “FVFLM: short peptide from the C-terminal region of AAT”, the “antiviral activity in MAGI cultures” value in the assay on HIV-1 strain A018A is “active”.

Regarding “FLMII: short peptide homologous/analogous to the C-terminal region of AAT”, in the assay on HIV-1 strain A018A, the “antiviral activity in MAGI cultures” value is recorded as “active”.

In the case of “FLFFI: short peptide homologous/analogous to the C-terminal region of AAT”, in the assay on HIV-1 strain A018A, the “antiviral activity in MAGI cultures” value was “active”.

Turning to “FVFLA: short peptide homologous/analogous to the C-terminal region of AAT”, the “antiviral activity in MAGI cultures” value in the assay with HIV-1 strain A018A was “active”.

As for “FLMFI: short peptide homologous/analogous to the C-terminal region of AAT”, in the assay with HIV-1 strain A018A, the “antiviral activity in MAGI cultures” value is listed as “active”.

Take “FIIMI: short peptide homologous/analogous to the C-terminal region of AAT”: the “antiviral activity in MAGI cultures” value in the assay on HIV-1 strain A018A is recorded as “active”.

“FVALM: short peptide homologous/analogous to the C-terminal region of AAT”: the “antiviral activity in MAGI cultures” value with HIV-1 strain A018A was “active”.

As for “FLFVV: short peptide homologous/analogous to the C-terminal region of AAT”, the “antiviral activity in MAGI cultures” value in the assay with HIV-1 strain A018A is listed as “active”.

On to “FLFLI: short peptide homologous/analogous to the C-terminal region of AAT”, for which the “antiviral activity in MAGI cultures” value with HIV-1 strain A018A is “active”.

In the case of “FLVFI: short peptide homologous/analogous to the C-terminal region of AAT”, the “antiviral activity in MAGI cultures” value in the assay with HIV-1 strain A018A was “active”.

Consider “AVFLM: short peptide homologous/analogous to the C-terminal region of AAT”, for which the “antiviral activity in MAGI cultures” value in the assay with HIV-1 strain A018A is “active”.

In the case of “FLFCI: short peptide homologous/analogous to the C-terminal region of AAT”, in the assay with HIV-1 strain A018A, the “antiviral activity in MAGI cultures” value was “active”.

With “FAFLM: short peptide homologous/analogous to the C-terminal region of AAT”, in the assay on HIV-1 strain A018A, the “antiviral activity in MAGI cultures” value was “active”.

With “FLFAV: short peptide homologous/analogous to the C-terminal region of AAT”, in the assay on HIV-1 strain A018A, the “antiviral activity in MAGI cultures” value is “active”.

Turning to “α1-antitrypsin (AAT), purified from human plasma”, in assay [1], the fold increase in actin-sedimented AAT against AAT only is 1.7 fold and the percentage of AAT sedimented in the presence of actin (AAT only = 100%) amounted to 268%.

For the molecule “FVFAM: short peptide homologous/analogous to the C-terminal region of AAT”, in the assay on HIV-1 strain A018A, the “antiviral activity in MAGI cultures” value was “active”.

Take `Cc1cccc(Cc2nnc(C(=O)C(NC(=O)[C@@H]3CCCN3C(=O)[C@@H](NC(=O)OCc3ccccc3)C(C)C)C(C)C)o2)c1` (stereo partly shown) [P3 inh]: the anti-HIV-1 effect entry in the assay with HIV-1 is “significant anti-HIV-1 effect”. Also, the NF-κB expression result with NF-κB is given as “reduced”.

Turning to “FLFVL: short peptide homologous/analogous to the C-terminal region of AAT”, the “antiviral activity in MAGI cultures” value in the assay with HIV-1 strain A018A is listed as “active”.

Turning to “FMLLI: short peptide homologous/analogous to the C-terminal region of AAT”, the “antiviral activity in MAGI cultures” value in the assay on HIV-1 strain A018A is recorded as “active”.

As to “Oxidized AAT: AAT oxidized by myeloperoxidase (MPO) system; loss of activity confirmed by elastase activity assay”, in assay [2], the cellular infiltrate result was “did not affect cellular infiltrate”. The “anti-protease (elastase inhibitory) activity” value with porcine elastase is recorded as “Loss of activity”.
